Results on 3 compounds are retold here after US10583109B2, “Use of silver(I) complexes as anticancer agents” (University of Johannesburg, priority 2012, dated 2020).

Experiment [1] deals with MCF-7 breast cancer cells. Description: Morphological features of MCF-7 cells by inverse light microscopy. The note with it: 10 μM, 24 hours after treatment, compared to 100 μM Cisplatin apoptotic control. The class given is cell-based, human. As to the method:
The morphological features of MCF-7 cells following differential treatments were evaluated by inverse light microscopy as depicted in FIG. 4. Untreated cells served as the control, while 1% DMSO served as the solvent control and 100 μM Cisplatin indicates apoptotic cells. Cells were exposed to 10 μM of complexes (1)-(5). Morphological changes of the cell indicative of apoptosis include cell shrinkage and blebbing.
In the light of the decreased viability, the morphology of the cells was studied 24 hours after treatment with 10 μM of complexes (1), (2), (3), (4) and (5) to determine if apoptotic or necrotic features were present. The morphology of the cells was compared to the apoptotic control treated with 100 μM Cisplatin (FIG. 4).

The subject of experiment [2] is SNO-oesophageal cancer cells. The class given is cell-based. The protocol:
The SNO-oesophageal cancer cells were cultured in Dulbecco's modified Eagles medium (DMEM) containing 10% Foetal bovine serum (FBS), 0.8% Penicillin/Streptomycin/Fungizone and 0.2% Gentamycin. The SNO-oesophageal cancer cells were subcultured every 48 hours and incubated at 37° C. under a 5% CO2 humidified atmosphere. After 48 hours the cells were trypsinized and plated (6×10^5 cells) in 3.5 cm culture dishes and left to cultivate for 24 hours.
MCF-7 breast cancer cells, in terms of a first study, and SNO-oesophageal cancer cells, in terms of a second study, were treated with 10 μM silverthiocyanide complexes (1)-(5), as well as their ligands (Ligand-1 to Ligand-5) over a 24 hour incubation period. These complexes were dissolved in 0.1% Dimethyl sulfoxide (DMSO). The DMSO alone (vehicle control) decreased the viability with approximately 2.2%, signifying its minimal influence in cancer cell growth. For comparative purposes, 100 μM Cisplatin (CDDP) and 25% H2O2 was included which respectively serves as the apoptotic and necrotic controls. Cisplatin was prepared in 0.9% NaCl, whereas H2O2 was prepared in the supplemented DMEM media right before treatment. An untreated negative control (UT) was exposed to similar conditions as the treated cells and monitored during the experimental study.
An AlamarBlue® Viability® (Serotec, UK) assay was performed after a 24 hour treatment with complexes (1)-(5) and their ligands (Ligand-1 to Ligand-5, respectively) to evaluate the cellular effect the instant complexes (and their ligands) may have on the cancer cells. AlamarBlue® dye (10%) was incubated with trypsinized cells over a 2 hour period before the fluorescence was measured with a Synergy HT Multi-Detection Microplate reader (BioTek, Winooski, Vt.) at wavelengths of 530 nm and (excitation) and 590 nm (emission). This fluorescent based assay in particular involves the metabolic oxidation-reduction reaction of resazurin to a reduced resorufin product that is directly proportional to the amount of viable cells.
The percentage cellular viability of differentially treated SNO-oesophageal cells was determined using an AlamarBlue® assay, as depicted in FIG. 7. Different controls (grey) were included: untreated, 0.1% DMSO solvent and apoptotic control (100 μM Cisplatin) as well as the corresponding ligands (10 μM) of complexes (1)-(5). Cells were treated with silver(I) thiocyanate phosphine complexes (1)-(5) at a concentration of 10 μM. The percentages were calculated with respect to the control and error bars were constructed on the basis of Standard Error of the Mean (SEM) where n=9 except for the ligand of compound 4 (n=8). The P-values (*P<0.001 and **P<0.0001) were determined with the Student's T-test to evaluate the significant difference.
The cells were thereafter treated with complexes (6)-(9) at a concentration of 10 μM prepared in 0.1% DMSO. Treatment with either 25% H2O2 or 100 μM CDDP served as controls for necrosis and apoptosis respectively. The CDDP was prepared in 0.9% NaCl while the H2O2 was diluted with supplemented DMEM prior to treatment.
A suspension (100 μl) of the differentially treated cells was added in triplicate to a microtiter plate. In the dark, AlamarBlue® dye (10 μl) was added to each well containing a sample, followed by a 2 hour incubation in a 5% CO2 incubator at 37° C. The fluorescence was read on a Synergy HT Multi-Detection Microplate reader at a wavelength of 530 nm and (excitation) and 590 nm (emission). In terms of this study, the apoptotic control CDDP (100 μM) was included. Error bars represent the standard error of the mean (SEM) where n=9. The Student's T-test was used to determine the significant difference of the treatments with respect to DMSO (P*<0.05 and P**<0.001). The silver(I) nitrate phosphine complexes under evaluation decreased the cancer cell viability to a large extent compared to DMSO except complex (9).
SNO-oesophageal cancer cells were a gift from the University of Pretoria, RSA. […]

A further experiment relates to A-549 lung cancer cells. The experiment in a line: AlamarBlue viability and proliferation assay of A-549 lung cancer cells. The note with it: 2.5 μM, 24 h. The class given is cell-based. As to the method: A-549 lung cancer cells were maintained in DMEM supplemented with 10% fetal calf serum (FCS), 1 mM pyruvate, 2 mM L-glutamine (Highveld Biological, Kelvin, RSA), 1% antibiotics (penicillin, streptomycin, amphotericin (Highveld Biological, Kelvin, RSA) and gentamycin (Invitrogen Life Technologies, Eugene, Oreg.)).
Cells (1×10^4 cells/well) were plated in 96-well flat-bottomed plates and incubated for 24 h at 37° C. with 5% CO2. All compounds were preheated for 30 min prior treatment. After 24 h compounds (2.5 μM) were mixed with supplemented media and incubated for 24 h. For the untreated control supplemented media was used. Since all compounds were dissolved in DMSO, a 1% DMSO was used as a vehicle control.
The A-549 lung cancer cells were incubated at 37° C. for 3 h in the presence of 10% AlamarBlue® viability and proliferation assay (Invitrogen Life Technologies, Eugene, Oreg.). […] Fluorescence was measured at 530-560 nm (excitation) and 590 nm (emission).
FIG. 27 is a bar chart showing percentage cellular viability of fibroblast cells and A-549 lung cancer cells treated with various molar ratios (complexes (6)-(9)) using the AlamarBlue® cell viability assay whereby the molar ratio of the silver(I) nitrate salt: phosphine ligand of 1:1, 1:2, 1:3 and 1:4 was assessed. Fluorescence was measured with 530 nm excitation wavelength and 590 nm emission wavelength. […]
In general terms: Alamar Blue is a resazurin reagent that responds to reducing activity.

Regarding `C1#[N+][Ag]([P+](c2ccccc2)(c2ccccc2)c2ccccc2)([P+](c2ccccc2)(c2ccccc2)c2ccccc2)[S]C#[N+][Ag]([P+](c2ccccc2)(c2ccccc2)c2ccccc2)([P+](c2ccccc2)(c2ccccc2)c2ccccc2)[S]1` [complex (1), [AgSCN(PPh3)2]2], the “cell morphology (apoptotic or necrotic features)” value in experiment [1] is given as “morphology characteristic of necrosis”.

On to `c1ccc([P+](c2ccccc2)(c2ccccc2)[Ag+]([P+](c2ccccc2)(c2ccccc2)c2ccccc2)([P+](c2ccccc2)(c2ccccc2)c2ccccc2)[P+](c2ccccc2)(c2ccccc2)c2ccccc2)cc1` [complex (9), AgNO3(PPh3)4], for which, in experiment [2] (10 μM in 0.1% DMSO, 24 hours, compared to vehicle control), the “cancer cell viability / toxicity” value is “low cytotoxicity”. Besides, in experiment [2] (10 μM, 24 hours), the “cancer cell death induced” value is around 31.25%. Besides, the “toxicity to A-549 lung cancer cells” value with A-549 lung cancer cells is “higher toxicity level”.

On to [AgSCN{P(4-FC6H4)3}2]2 [complex (3)], for which the “percentage cellular viability / toxicity” value in experiment [2] (10 μM, 24 hour treatment, compared to the control) is on record as “highly toxic”.
